Tested on: MCF-7 (human breast cancer cell line)
Test: MTT assay, in vitro anticancer activity, MCF-7
Assay type: cell-based
Conditions: MCF7, 48 h treatment
Protocol: (§1) The synthesized compounds 7(a–l) were evaluated for their in vitro anticancer activity against MCF-7 (human breast cancer cell line), HeLa (human cervical cancer cell line), SKMEL-2 (human melanoma cancer cell line) and HL-60 (human leukemia cancer cell line) cancer cell lines, as shown in Table 2. […] The GI50 values (the concentration required to achieve a growth inhibition of 50%) for the synthesized compounds were determined by MTT assay method. The in vitro anticancer evaluation results and GI50 values were listed in Table 2, and the well-known anticancer drug Adriamycin was used as positive control.
(§2) The synthesized compounds 7(a–l) were evaluated for their in vitro anticancer activity against MCF-7 (human breast cancer cell line), HeLa (human cervical cancer cell line), SKMEL-2 (human melanoma cancer cell line) and HL-60 (human leukemia cancer cell line) cancer cell lines. The GI50 values (concentration required to Growth inhibition of 50%) for the synthesized compounds were determined using the MTT assays method.
(§3) The stock solutions of test compounds were prepared in DMSO. After 24 h incubation, different concentrations (2, 4, 6, 8 µM) of compounds, made by serial dilution in culture medium, were added in 48 h incubation. The final concentration of DMSO was 0.01% in each well. […] The cell growth was determined using MTT (3-(4,5-dimethylthiazol-2-yl)-2,5-diphenyl tetrazolium bromide (Sigma, St. Louis, MO, USA) reduction assay, which is based on the ability of viable cells to reduce a soluble yellow tetrazolium salt to blue formazan crystal. Briefly, after 48 h of treatments, the 10 µl of MTT dye, prepared in phosphate buffered saline (PBS) was added to all wells. The plates were then incubated for 4 h at 37 °C. Supernatant from each well was carefully removed, formazon crystals were dissolved in 100 µL of DMSO and absorbance at 540 nm wavelength was recorded and each concentration was tested in threefold. The GI50 values were determined as concentration of compounds that inhibited cancer cell growth by 50%.

Compound	GI50 [µM]
COc1cccc2c1C(=O)c1c(O)c3c(c(O)c1C2=O)C[C@@](O)(C(=O)CO)C[C@@H]3O[C@H]1C[C@H](N)[C@H](O)[C@H](C)O1 [ADR, Adriamycin, reference compound]	< 10
O=C(NCc1nnc(/N=C/c2ccc(Cl)cc2)s1)c1ccccc1 [Compound 7a, (E)-N-((5-(4-Chlorobenzylideneamino)-1,3,4-thiadiazol-2-yl)methyl) benzamide]	22.9
O=C(NCc1nnc(/N=C/c2ccc(Cl)cc2Cl)s1)c1ccccc1 [Compound 7b, (E)-N-((5-(2,4-Dichlorobenzylideneamino)-1,3,4-thiadiazol-2-yl)methyl) benzamide]	28.7
O=C(NCc1nnc(/N=C/c2ccc(O)cc2)s1)c1ccccc1 [Compound 7c, (E)-N-((5-(4-Hydroxybenzylideneamino)-1,3,4-thiadiazol-2-yl)methyl) benzamide]	32.4
O=C(NCc1nnc(/N=C/c2ccccc2O)s1)c1ccccc1 [Compound 7d, (E)-N-((5-(2-Hydroxybenzylideneamino)-1,3,4-thiadiazol-2-yl)methyl) benzamide]	36.7
COc1cc(/C=N/c2nnc(CNC(=O)c3ccccc3)s2)ccc1O [Compound 7e, (E)-N-((5-(4-Hydroxy-3-methoxybenzylideneamino)-1,3,4-thiadiazol-2-yl)methyl) benzamide]	35.2
CCOc1cc(/C=N/c2nnc(CNC(=O)c3ccccc3)s2)ccc1O [Compound 7f, (E)-N-((5-(3-Ethoxy-4-hydroxybenzylideneamino)-1,3,4-thiadiazol-2-yl)methyl) benzamide]	38.4
COc1ccc(/C=N/c2nnc(CNC(=O)c3ccccc3)s2)cc1 [Compound 7g, (E)-N-((5-(4-Methoxybenzylideneamino)-1,3,4-thiadiazol-2-yl)methyl) benzamide]	41
COc1ccc(/C=N/c2nnc(CNC(=O)c3ccccc3)s2)cc1OC [Compound 7h, (E)-N-((5-(3,4-Dimethoxybenzylideneamino)-1,3,4-thiadiazol-2-yl)methyl) benzamide]	46.2
COc1cc(/C=N/c2nnc(CNC(=O)c3ccccc3)s2)cc(OC)c1OC [Compound 7i, (E)-N-((5-(3,4,5-Trimethoxybenzylideneamino)-1,3,4-thiadiazol-2-yl)methyl) benzamide]	49
COc1cc(OC)c(OC)cc1/C=N/c1nnc(CNC(=O)c2ccccc2)s1 [Compound 7j, (E)-N-((5-(2,4,5-Trimethoxybenzylideneamino)-1,3,4-thiadiazol-2-yl)methyl) benzamide]	51.4
O=C(NCc1nnc(/N=C/c2ccco2)s1)c1ccccc1 [Compound 7k, (E)-N-((5-(Furan-2-ylmethyleneamino)-1,3,4-thiadiazol-2-yl)methyl) benzamide]	11.7
O=C(NCc1nnc(/N=C/c2cccs2)s1)c1ccccc1 [Compound 7l, (E)-N-((5-(Thiophen-2-ylmethyleneamino)-1,3,4-thiadiazol-2-yl)methyl) benzamide]	19

Tested on: HeLa (human cervical cancer cell line)
Test: MTT assay, in vitro anticancer activity, HeLa
Assay type: cell-based
Conditions: 48 h treatment
Protocol: as §1, §2, §3

Compound	GI50 [µM]
COc1cccc2c1C(=O)c1c(O)c3c(c(O)c1C2=O)C[C@@](O)(C(=O)CO)C[C@@H]3O[C@H]1C[C@H](N)[C@H](O)[C@H](C)O1 [ADR, Adriamycin, reference compound]	< 10
O=C(NCc1nnc(/N=C/c2ccc(Cl)cc2)s1)c1ccccc1 [Compound 7a, (E)-N-((5-(4-Chlorobenzylideneamino)-1,3,4-thiadiazol-2-yl)methyl) benzamide]	32.8
O=C(NCc1nnc(/N=C/c2ccc(Cl)cc2Cl)s1)c1ccccc1 [Compound 7b, (E)-N-((5-(2,4-Dichlorobenzylideneamino)-1,3,4-thiadiazol-2-yl)methyl) benzamide]	39
O=C(NCc1nnc(/N=C/c2ccc(O)cc2)s1)c1ccccc1 [Compound 7c, (E)-N-((5-(4-Hydroxybenzylideneamino)-1,3,4-thiadiazol-2-yl)methyl) benzamide]	41.1
O=C(NCc1nnc(/N=C/c2ccccc2O)s1)c1ccccc1 [Compound 7d, (E)-N-((5-(2-Hydroxybenzylideneamino)-1,3,4-thiadiazol-2-yl)methyl) benzamide]	52.4
COc1cc(/C=N/c2nnc(CNC(=O)c3ccccc3)s2)ccc1O [Compound 7e, (E)-N-((5-(4-Hydroxy-3-methoxybenzylideneamino)-1,3,4-thiadiazol-2-yl)methyl) benzamide]	46.8
CCOc1cc(/C=N/c2nnc(CNC(=O)c3ccccc3)s2)ccc1O [Compound 7f, (E)-N-((5-(3-Ethoxy-4-hydroxybenzylideneamino)-1,3,4-thiadiazol-2-yl)methyl) benzamide]	49.2
COc1ccc(/C=N/c2nnc(CNC(=O)c3ccccc3)s2)cc1 [Compound 7g, (E)-N-((5-(4-Methoxybenzylideneamino)-1,3,4-thiadiazol-2-yl)methyl) benzamide]	66.1
COc1ccc(/C=N/c2nnc(CNC(=O)c3ccccc3)s2)cc1OC [Compound 7h, (E)-N-((5-(3,4-Dimethoxybenzylideneamino)-1,3,4-thiadiazol-2-yl)methyl) benzamide]	71.7
COc1cc(/C=N/c2nnc(CNC(=O)c3ccccc3)s2)cc(OC)c1OC [Compound 7i, (E)-N-((5-(3,4,5-Trimethoxybenzylideneamino)-1,3,4-thiadiazol-2-yl)methyl) benzamide]	78
COc1cc(OC)c(OC)cc1/C=N/c1nnc(CNC(=O)c2ccccc2)s1 [Compound 7j, (E)-N-((5-(2,4,5-Trimethoxybenzylideneamino)-1,3,4-thiadiazol-2-yl)methyl) benzamide]	78.8
O=C(NCc1nnc(/N=C/c2ccco2)s1)c1ccccc1 [Compound 7k, (E)-N-((5-(Furan-2-ylmethyleneamino)-1,3,4-thiadiazol-2-yl)methyl) benzamide]	23.8
O=C(NCc1nnc(/N=C/c2cccs2)s1)c1ccccc1 [Compound 7l, (E)-N-((5-(Thiophen-2-ylmethyleneamino)-1,3,4-thiadiazol-2-yl)methyl) benzamide]	28.8

Tested on: SKMEL-2 (human melanoma cancer cell line)
Test: MTT assay, in vitro anticancer activity, SKMEL-2
Assay type: cell-based
Conditions: SK-MEL-2, 48 h treatment
Protocol: as §1, §2, §3

Compound	GI50 [µM]
COc1cccc2c1C(=O)c1c(O)c3c(c(O)c1C2=O)C[C@@](O)(C(=O)CO)C[C@@H]3O[C@H]1C[C@H](N)[C@H](O)[C@H](C)O1 [ADR, Adriamycin, reference compound]	< 10
O=C(NCc1nnc(/N=C/c2ccc(Cl)cc2)s1)c1ccccc1 [Compound 7a, (E)-N-((5-(4-Chlorobenzylideneamino)-1,3,4-thiadiazol-2-yl)methyl) benzamide]	21.9
O=C(NCc1nnc(/N=C/c2ccc(Cl)cc2Cl)s1)c1ccccc1 [Compound 7b, (E)-N-((5-(2,4-Dichlorobenzylideneamino)-1,3,4-thiadiazol-2-yl)methyl) benzamide]	22.9
O=C(NCc1nnc(/N=C/c2ccc(O)cc2)s1)c1ccccc1 [Compound 7c, (E)-N-((5-(4-Hydroxybenzylideneamino)-1,3,4-thiadiazol-2-yl)methyl) benzamide]	27.5
O=C(NCc1nnc(/N=C/c2ccccc2O)s1)c1ccccc1 [Compound 7d, (E)-N-((5-(2-Hydroxybenzylideneamino)-1,3,4-thiadiazol-2-yl)methyl) benzamide]	34
COc1cc(/C=N/c2nnc(CNC(=O)c3ccccc3)s2)ccc1O [Compound 7e, (E)-N-((5-(4-Hydroxy-3-methoxybenzylideneamino)-1,3,4-thiadiazol-2-yl)methyl) benzamide]	28.1
CCOc1cc(/C=N/c2nnc(CNC(=O)c3ccccc3)s2)ccc1O [Compound 7f, (E)-N-((5-(3-Ethoxy-4-hydroxybenzylideneamino)-1,3,4-thiadiazol-2-yl)methyl) benzamide]	30
COc1ccc(/C=N/c2nnc(CNC(=O)c3ccccc3)s2)cc1 [Compound 7g, (E)-N-((5-(4-Methoxybenzylideneamino)-1,3,4-thiadiazol-2-yl)methyl) benzamide]	46.4
COc1ccc(/C=N/c2nnc(CNC(=O)c3ccccc3)s2)cc1OC [Compound 7h, (E)-N-((5-(3,4-Dimethoxybenzylideneamino)-1,3,4-thiadiazol-2-yl)methyl) benzamide]	49.1
COc1cc(/C=N/c2nnc(CNC(=O)c3ccccc3)s2)cc(OC)c1OC [Compound 7i, (E)-N-((5-(3,4,5-Trimethoxybenzylideneamino)-1,3,4-thiadiazol-2-yl)methyl) benzamide]	52.6
COc1cc(OC)c(OC)cc1/C=N/c1nnc(CNC(=O)c2ccccc2)s1 [Compound 7j, (E)-N-((5-(2,4,5-Trimethoxybenzylideneamino)-1,3,4-thiadiazol-2-yl)methyl) benzamide]	55.7
O=C(NCc1nnc(/N=C/c2ccco2)s1)c1ccccc1 [Compound 7k, (E)-N-((5-(Furan-2-ylmethyleneamino)-1,3,4-thiadiazol-2-yl)methyl) benzamide]	19.6
O=C(NCc1nnc(/N=C/c2cccs2)s1)c1ccccc1 [Compound 7l, (E)-N-((5-(Thiophen-2-ylmethyleneamino)-1,3,4-thiadiazol-2-yl)methyl) benzamide]	22

Tested on: HL-60 (human leukemia cancer cell line)
Test: MTT assay, in vitro anticancer activity, HL-60
Assay type: cell-based
Conditions: 48 h treatment
Protocol: as §1, §2, §3

Compound	GI50 [µM]
COc1cccc2c1C(=O)c1c(O)c3c(c(O)c1C2=O)C[C@@](O)(C(=O)CO)C[C@@H]3O[C@H]1C[C@H](N)[C@H](O)[C@H](C)O1 [ADR, Adriamycin, reference compound]	< 10
O=C(NCc1nnc(/N=C/c2ccc(Cl)cc2)s1)c1ccccc1 [Compound 7a, (E)-N-((5-(4-Chlorobenzylideneamino)-1,3,4-thiadiazol-2-yl)methyl) benzamide]	21.7
O=C(NCc1nnc(/N=C/c2ccc(Cl)cc2Cl)s1)c1ccccc1 [Compound 7b, (E)-N-((5-(2,4-Dichlorobenzylideneamino)-1,3,4-thiadiazol-2-yl)methyl) benzamide]	28.2
O=C(NCc1nnc(/N=C/c2ccc(O)cc2)s1)c1ccccc1 [Compound 7c, (E)-N-((5-(4-Hydroxybenzylideneamino)-1,3,4-thiadiazol-2-yl)methyl) benzamide]	33.3
O=C(NCc1nnc(/N=C/c2ccccc2O)s1)c1ccccc1 [Compound 7d, (E)-N-((5-(2-Hydroxybenzylideneamino)-1,3,4-thiadiazol-2-yl)methyl) benzamide]	40.2
COc1cc(/C=N/c2nnc(CNC(=O)c3ccccc3)s2)ccc1O [Compound 7e, (E)-N-((5-(4-Hydroxy-3-methoxybenzylideneamino)-1,3,4-thiadiazol-2-yl)methyl) benzamide]	39.6
CCOc1cc(/C=N/c2nnc(CNC(=O)c3ccccc3)s2)ccc1O [Compound 7f, (E)-N-((5-(3-Ethoxy-4-hydroxybenzylideneamino)-1,3,4-thiadiazol-2-yl)methyl) benzamide]	37.5
COc1ccc(/C=N/c2nnc(CNC(=O)c3ccccc3)s2)cc1 [Compound 7g, (E)-N-((5-(4-Methoxybenzylideneamino)-1,3,4-thiadiazol-2-yl)methyl) benzamide]	42.4
COc1ccc(/C=N/c2nnc(CNC(=O)c3ccccc3)s2)cc1OC [Compound 7h, (E)-N-((5-(3,4-Dimethoxybenzylideneamino)-1,3,4-thiadiazol-2-yl)methyl) benzamide]	48.2
COc1cc(/C=N/c2nnc(CNC(=O)c3ccccc3)s2)cc(OC)c1OC [Compound 7i, (E)-N-((5-(3,4,5-Trimethoxybenzylideneamino)-1,3,4-thiadiazol-2-yl)methyl) benzamide]	45.8
COc1cc(OC)c(OC)cc1/C=N/c1nnc(CNC(=O)c2ccccc2)s1 [Compound 7j, (E)-N-((5-(2,4,5-Trimethoxybenzylideneamino)-1,3,4-thiadiazol-2-yl)methyl) benzamide]	49.9
O=C(NCc1nnc(/N=C/c2ccco2)s1)c1ccccc1 [Compound 7k, (E)-N-((5-(Furan-2-ylmethyleneamino)-1,3,4-thiadiazol-2-yl)methyl) benzamide]	35.5
O=C(NCc1nnc(/N=C/c2cccs2)s1)c1ccccc1 [Compound 7l, (E)-N-((5-(Thiophen-2-ylmethyleneamino)-1,3,4-thiadiazol-2-yl)methyl) benzamide]	29.9

Tested on: not listed separately
Test: MTT assay, cytotoxicity on non-tumorigenic cells, MCF-10A
Assay type: cell-based
Conditions: human, MCF-10A non-tumorigenic breast epithelial cells; MTT, MCF-10A normal breast epithelial cells
Protocol: [The procedure below names another cell line; the source lists this cell line under the same test.] as §1, §3

Compound	GI50 at 48 h [µM]
O=C(NCc1nnc(/N=C/c2ccc(Cl)cc2)s1)c1ccccc1 [Compound 7a, (E)-N-((5-(4-Chlorobenzylideneamino)-1,3,4-thiadiazol-2-yl)methyl) benzamide]	> 100
O=C(NCc1nnc(/N=C/c2ccc(Cl)cc2Cl)s1)c1ccccc1 [Compound 7b, (E)-N-((5-(2,4-Dichlorobenzylideneamino)-1,3,4-thiadiazol-2-yl)methyl) benzamide]	86.1
O=C(NCc1nnc(/N=C/c2ccco2)s1)c1ccccc1 [Compound 7k, (E)-N-((5-(Furan-2-ylmethyleneamino)-1,3,4-thiadiazol-2-yl)methyl) benzamide]	> 100
O=C(NCc1nnc(/N=C/c2cccs2)s1)c1ccccc1 [Compound 7l, (E)-N-((5-(Thiophen-2-ylmethyleneamino)-1,3,4-thiadiazol-2-yl)methyl) benzamide]	> 100

Tested on: MCF-10A normal breast epithelial cell lines
Test: as above
Assay type: cell-based
Conditions: MCF-7 vs MCF-10A GI50
Protocol: [The procedure below names another cell line; the source lists this cell line under the same test.] as §1, §3

Compound	selectivity for MCF-7 cancer cell lines in comparison to MCF-10A normal breast epithelial cell lines
O=C(NCc1nnc(/N=C/c2ccc(Cl)cc2Cl)s1)c1ccccc1 [Compound 7b, (E)-N-((5-(2,4-Dichlorobenzylideneamino)-1,3,4-thiadiazol-2-yl)methyl) benzamide]	three
